Values joined by “and” are separate entries in the source; they are usually repeats but may differ in a detail not shown here. Equal entries are not always repeated. Toxic doses and inconclusive results are not listed.

14 compounds from PubChem BioAssay AID328 (DTP/NCI, 2004) can be followed below.

The experiment relates to BDF1 mice, P388 leukemia ip, median survival T/C. Put plainly: NCI In Vivo Anticancer Drug Screen. Data for tumor model P388 Leukemia (intraperitoneal) in B6D2F1 (BDF1) mice. The following applies: endpoint: median survival time, higher = longer survival. Put shortly: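 T/C = treated-group survival ÷ vehicle-control survival; tumour transplanted into mice before dosing.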

Setting [1] is: dose: 25.0 mg/kg/injection, schedule: Q01DX009 (ip), vehicle: saline.

Turning to `CCP(CC)c1ccccc1`, the T/C is 96 % of control (dose: 100.0 mg/kg/injection, schedule: Q01DX009 (sc), vehicle: olive oil, sesame oil, peanut oil); 92 % of control (dose: 100.0 mg/kg/injection, schedule: Q04DX003 (sc), vehicle: olive oil, sesame oil, peanut oil); 96 % of control (dose: 200.0 mg/kg/injection, schedule: Q01DX009 (sc), vehicle: olive oil, sesame oil, peanut oil); 100 % of control (dose: 200.0 mg/kg/injection, schedule: Q04DX003 (sc), vehicle: olive oil, sesame oil, peanut oil); 88 % of control (dose: 400.0 mg/kg/injection, schedule: Q01DX009 (sc), vehicle: olive oil, sesame oil, peanut oil); 92 % of control (dose: 400.0 mg/kg/injection, schedule: Q04DX003 (sc), vehicle: olive oil, sesame oil, peanut oil).
In the case of `CC1Cc2ccccc2SC1(C)C` (configuration not stated), the T/C is 101 % of control (dose: 12.5 mg/kg/injection, schedule: Q01DX009 (ip), vehicle: saline); 114 % of control under setting [1]; 115 % of control (dose: 50.0 mg/kg/injection, schedule: Q01DX009 (ip), vehicle: saline).
Consider `CCN=C1N[N+]2=CCCCC2S1` (configuration not stated), for which the T/C (dose: 35.0 mg/kg/injection, schedule: Q01DX009 (ip), vehicle: saline) was 111 % of control and the T/C (dose: 140.0 mg/kg/injection, schedule: Q01DX009 (ip), vehicle: saline) is 95 % of control.
Turning to `CCCN(CCC)c1ccc(C=O)cc1`, the T/C was 100 % of control (dose: 50.0 mg/kg/injection, schedule: Q04DX003 (ip), vehicle: Klucel (hydroxypropylcellulose) (HPC)); 105 % of control (dose: 100.0 mg/kg/injection, schedule: Q04DX003 (ip), vehicle: Klucel (hydroxypropylcellulose) (HPC)); 94 % of control (dose: 200.0 mg/kg/injection, schedule: Q04DX003 (ip), vehicle: Klucel (hydroxypropylcellulose) (HPC)).
As to `O=[N+]([O-])C=C1CCCCC1`, the T/C is, setting by setting: (dose: 25.0 mg/kg/injection, schedule: Q01DX001 (ip), vehicle: saline with Tween-80) 113 % of control; (dose: 50.0 mg/kg/injection, schedule: Q01DX001 (ip), vehicle: saline with Tween-80) 118 % of control; (dose: 100.0 mg/kg/injection, schedule: Q01DX001 (ip), vehicle: saline with Tween-80) 113 % of control.
Turning to `COc1ccc(C=Nc2ccccc2N=Cc2ccc(OC)c(OC)c2)cc1OC`, the T/C by setting is: (dose: 100.0 mg/kg/injection, schedule: Q01DX009 (ip), vehicle: saline with Tween-80) 113 % of control; (dose: 100.0 mg/kg/injection, schedule: Q04DX003 (ip), vehicle: saline with Tween-80) 110 % of control; (dose: 200.0 mg/kg/injection, schedule: Q01DX009 (ip), vehicle: saline with Tween-80) 100 % of control; (dose: 200.0 mg/kg/injection, schedule: Q04DX003 (ip), vehicle: saline with Tween-80) 110 % of control; (dose: 400.0 mg/kg/injection, schedule: Q01DX009 (ip), vehicle: saline with Tween-80) 100 % of control; (dose: 400.0 mg/kg/injection, schedule: Q04DX003 (ip), vehicle: saline with Tween-80) 100 % of control.
In the case of `O=C(Nc1ccc(NC2=NCCN2)cc1)c1cccc(C(=O)Nc2ccc(NC3=NCCN3)cc2)c1`, the T/C (dose: 5.0 mg/kg/injection, schedule: Q01DX009 (ip), vehicle: saline with Tween-80) was 116 % of control; the T/C (dose: 5.0 mg/kg/injection, schedule: Q04DX003 (ip), vehicle: saline with Tween-80) was 100 % of control; the T/C (dose: 10.0 mg/kg/injection, schedule: Q04DX003 (ip), vehicle: saline with Tween-80) is 100 % of control; the T/C (dose: 13.0 mg/kg/injection, schedule: Q01DX009 (ip), vehicle: saline with Tween-80) is 150 % of control; the T/C (dose: 20.0 mg/kg/injection, schedule: Q04DX003 (ip), vehicle: saline with Tween-80) is 122 % of control; the T/C (dose: 30.0 mg/kg/injection, schedule: Q01DX009 (ip), vehicle: saline with Tween-80) is 122 % of control.
Consider `O=C(CCCC(O)(C1CC1)C1CC1)C1CC1`, for which the T/C is 100 % of control (dose: 100.0 mg/kg/injection, schedule: Q01DX009 (ip), vehicle: Klucel (hydroxypropylcellulose) (HPC)) and 115 % of control (dose: 200.0 mg/kg/injection, schedule: Q01DX009 (ip), vehicle: Klucel (hydroxypropylcellulose) (HPC)).
On to `O=C(Nc1ccccc1Cl)OCC#CCOC(=O)Nc1ccccc1Cl`, for which the T/C is 90 % of control (dose: 100.0 mg/kg/injection, schedule: Q04DX003 (ip), vehicle: saline sonified); 95 % of control (dose: 200.0 mg/kg/injection, schedule: Q04DX003 (ip), vehicle: saline sonified); 86 % of control (dose: 400.0 mg/kg/injection, schedule: Q04DX003 (ip), vehicle: saline sonified).
On to `COc1ccc(CCNC(=S)NCCc2ccc(OC)c(OC)c2)cc1OC`, for which the T/C is 100 % of control (dose: 50.0 mg/kg/injection, schedule: Q01DX001 (ip), vehicle: Klucel (hydroxypropylcellulose) (HPC)); 100 % of control (dose: 100.0 mg/kg/injection, schedule: Q01DX001 (ip), vehicle: Klucel (hydroxypropylcellulose) (HPC)); 90 % of control (dose: 200.0 mg/kg/injection, schedule: Q01DX001 (ip), vehicle: Klucel (hydroxypropylcellulose) (HPC)).
As to `Nc1cc(Cl)cc(Cl)c1C(=O)O`, the T/C was 95 % of control (dose: 100.0 mg/kg/injection, schedule: Q01DX001 (ip), vehicle: other); 100 % of control (dose: 200.0 mg/kg/injection, schedule: Q01DX001 (ip), vehicle: other); 95 % of control (dose: 400.0 mg/kg/injection, schedule: Q01DX001 (ip), vehicle: other).
Take `CC(C)C[C@H](O)C(=O)O`: the T/C is 95 % of control under setting [1]; 109 % of control (dose: 44.0 mg/kg/injection, schedule: Q01DX009 (ip), vehicle: saline); 109 % of control (dose: 66.0 mg/kg/injection, schedule: Q01DX009 (ip), vehicle: saline); 95 % of control and 120 % of control (dose: 100.0 mg/kg/injection, schedule: Q01DX009 (ip), vehicle: saline); 118 % of control (dose: 150.0 mg/kg/injection, schedule: Q01DX009 (ip), vehicle: saline); 95 % of control (dose: 200.0 mg/kg/injection, schedule: Q01DX009 (ip), vehicle: saline).
Regarding `CN=C(NC#N)NCCSCc1nc[nH]c1C`, the T/C runs as follows: (dose: 12.5 mg/kg/injection, schedule: Q01DX005 (ip), vehicle: Klucel (hydroxypropylcellulose) (HPC)) 96 % of control; (dose: 25.0 mg/kg/injection, schedule: Q01DX005 (ip), vehicle: Klucel (hydroxypropylcellulose) (HPC)) 92 % of control and 116 % of control; (dose: 50.0 mg/kg/injection, schedule: Q01DX005 (ip), vehicle: Klucel (hydroxypropylcellulose) (HPC)) 101 % of control; (dose: 100.0 mg/kg/injection, schedule: Q01DX005 (ip), vehicle: Klucel (hydroxypropylcellulose) (HPC)) 93 % of control and 101 % of control; (dose: 200.0 mg/kg/injection, schedule: Q01DX005 (ip), vehicle: Klucel (hydroxypropylcellulose) (HPC)) 118 % of control; (dose: 400.0 mg/kg/injection, schedule: Q01DX005 (ip), vehicle: Klucel (hydroxypropylcellulose) (HPC)) 95 % of control.
Regarding `Cc1nc(N)nc(N)c1-c1ccc(Cl)c(Cl)c1`, the T/C is 100 % of control (dose: 0.85 mg/kg/injection, schedule: Q01DX009 (ip), vehicle: saline with Tween-80); 103 % of control (dose: 1.0 mg/kg/injection, schedule: Q02DX005 (ip), vehicle: Klucel (hydroxypropylcellulose) (HPC)); 107 % of control (dose: 1.0 mg/kg/injection, schedule: Q02DX009 (ip), vehicle: Klucel (hydroxypropylcellulose) (HPC)); 111 % of control (dose: 2.0 mg/kg/injection, schedule: Q02DX005 (ip), vehicle: Klucel (hydroxypropylcellulose) (HPC)); 117 % of control (dose: 2.0 mg/kg/injection, schedule: Q02DX009 (ip), vehicle: Klucel (hydroxypropylcellulose) (HPC)); 122 % of control (dose: 3.0 mg/kg/injection, schedule: Q01DX009 (ip), vehicle: saline with Tween-80). The T/C was 101 % of control (dose: 4.0 mg/kg/injection, schedule: Q02DX005 (ip), vehicle: Klucel (hydroxypropylcellulose) (HPC)); 121 % of control (dose: 4.0 mg/kg/injection, schedule: Q02DX009 (ip), vehicle: Klucel (hydroxypropylcellulose) (HPC)); 118 % of control (dose: 4.5 mg/kg/injection, schedule: Q01DX009 (ip), vehicle: saline with Tween-80); 86 % of control (dose: 6.25 mg/kg/injection, schedule: Q01DX009 (ip), vehicle: saline with Tween-80); 97 % of control (dose: 8.0 mg/kg/injection, schedule: Q02DX005 (ip), vehicle: Klucel (hydroxypropylcellulose) (HPC)); 154 % of control (dose: 8.0 mg/kg/injection, schedule: Q02DX009 (ip), vehicle: Klucel (hydroxypropylcellulose) (HPC)). Besides, the T/C reads like this: (dose: 16.0 mg/kg/injection, schedule: Q02DX009 (ip), vehicle: Klucel (hydroxypropylcellulose) (HPC)) 117 % of control; (dose: 25.0 mg/kg/injection, schedule: Q04DX003 (ip), vehicle: saline with Tween-80) 172 % of control; (dose: 37.5 mg/kg/injection, schedule: Q04DX003 (ip), vehicle: saline with Tween-80) 118 % of control.
